Results taken from article PMC6300978 (Chemico-biological interactions, 2015).
Where “and” joins values, the source holds several entries; their conditions need not be identical. Identical values can stand only once.

Experiments:
UGT1A1 = biological target: T1, UGT1A1 (Homo sapiens, UniProt P22309); test: GA glucuronidation kinetics by recombinant UGT1A1; assay type: in vitro ADME; conditions: recombinant human UGT1A1, pH 7.4, Clint
T1 sequence (P22309 26-533): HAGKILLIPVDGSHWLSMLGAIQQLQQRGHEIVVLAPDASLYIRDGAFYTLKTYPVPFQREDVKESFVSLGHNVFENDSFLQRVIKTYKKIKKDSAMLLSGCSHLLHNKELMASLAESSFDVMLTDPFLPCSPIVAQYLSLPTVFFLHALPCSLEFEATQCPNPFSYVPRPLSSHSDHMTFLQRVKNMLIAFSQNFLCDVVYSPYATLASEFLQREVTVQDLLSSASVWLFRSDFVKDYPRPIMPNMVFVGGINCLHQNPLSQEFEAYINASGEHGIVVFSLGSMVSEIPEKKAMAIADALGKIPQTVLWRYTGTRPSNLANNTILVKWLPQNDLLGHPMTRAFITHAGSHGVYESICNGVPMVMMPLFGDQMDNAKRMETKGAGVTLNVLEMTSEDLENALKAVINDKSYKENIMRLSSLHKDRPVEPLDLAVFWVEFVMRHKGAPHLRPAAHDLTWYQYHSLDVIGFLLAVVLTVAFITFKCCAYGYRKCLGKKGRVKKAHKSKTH

[1] = GA glucuronidation kinetics in cynomolgus monkey liver microsomes; assay type: in vitro ADME, cynomolgus monkeys; conditions: CyLM; for Km at 60 min: cynomolgus monkey, liver microsomes, pH 7.4, Km (KS), Michaelis–Menten
recombinant human UGT2B7 = biological target: T2, recombinant human UGT2B7 (Homo sapiens, UniProt P16662); test: GA glucuronidation by recombinant UGT2B7; assay type: in vitro ADME; conditions: UGT2B7, whole range of substrate concentrations
T2 sequence (P16662 24-529): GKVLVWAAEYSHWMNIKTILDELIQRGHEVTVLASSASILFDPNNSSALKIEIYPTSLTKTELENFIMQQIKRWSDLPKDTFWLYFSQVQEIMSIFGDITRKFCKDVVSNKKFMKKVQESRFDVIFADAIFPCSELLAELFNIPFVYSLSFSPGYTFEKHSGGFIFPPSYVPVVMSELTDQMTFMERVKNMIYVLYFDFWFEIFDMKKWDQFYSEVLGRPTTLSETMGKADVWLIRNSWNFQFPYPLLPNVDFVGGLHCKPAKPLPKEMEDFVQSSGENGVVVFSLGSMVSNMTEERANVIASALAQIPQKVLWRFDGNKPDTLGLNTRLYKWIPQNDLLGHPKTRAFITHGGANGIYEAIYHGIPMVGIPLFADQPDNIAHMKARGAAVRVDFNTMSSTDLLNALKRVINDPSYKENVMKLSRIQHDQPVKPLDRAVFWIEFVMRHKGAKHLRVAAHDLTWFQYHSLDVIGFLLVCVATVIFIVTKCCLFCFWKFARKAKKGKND

[2] = GA glucuronidation kinetics in rat liver microsomes; assay type: in vitro ADME, Sprague-Dawley rats; conditions: for microsomal CLint: rat liver microsomes
recombinant human UGT1A9 = biological target: T3, recombinant human UGT1A9 (Homo sapiens, UniProt O60656); test: GA glucuronidation by recombinant UGT1A9; assay type: in vitro ADME; conditions: UGT1A9, whole range of substrate concentrations
T3 sequence (O60656 26-530): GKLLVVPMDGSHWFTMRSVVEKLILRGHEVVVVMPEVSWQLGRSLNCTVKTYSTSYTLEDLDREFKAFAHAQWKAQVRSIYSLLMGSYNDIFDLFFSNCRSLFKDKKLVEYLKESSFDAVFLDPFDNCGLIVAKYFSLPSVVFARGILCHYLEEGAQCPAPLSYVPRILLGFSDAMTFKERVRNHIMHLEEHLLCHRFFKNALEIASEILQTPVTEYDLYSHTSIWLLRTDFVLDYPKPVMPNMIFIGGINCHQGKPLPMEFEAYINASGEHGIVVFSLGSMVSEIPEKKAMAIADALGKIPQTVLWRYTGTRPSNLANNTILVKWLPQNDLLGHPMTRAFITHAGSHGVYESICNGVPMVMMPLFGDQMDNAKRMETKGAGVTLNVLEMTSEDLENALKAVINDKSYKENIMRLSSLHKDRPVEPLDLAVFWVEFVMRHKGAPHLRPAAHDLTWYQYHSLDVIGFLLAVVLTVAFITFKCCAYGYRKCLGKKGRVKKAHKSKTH

UGT1A10 = biological target: T4, UGT1A10 (Homo sapiens, UniProt Q9HAW8); test: GA glucuronidation kinetics by recombinant UGT1A10; assay type: in vitro ADME
T4 sequence (Q9HAW8 26-530): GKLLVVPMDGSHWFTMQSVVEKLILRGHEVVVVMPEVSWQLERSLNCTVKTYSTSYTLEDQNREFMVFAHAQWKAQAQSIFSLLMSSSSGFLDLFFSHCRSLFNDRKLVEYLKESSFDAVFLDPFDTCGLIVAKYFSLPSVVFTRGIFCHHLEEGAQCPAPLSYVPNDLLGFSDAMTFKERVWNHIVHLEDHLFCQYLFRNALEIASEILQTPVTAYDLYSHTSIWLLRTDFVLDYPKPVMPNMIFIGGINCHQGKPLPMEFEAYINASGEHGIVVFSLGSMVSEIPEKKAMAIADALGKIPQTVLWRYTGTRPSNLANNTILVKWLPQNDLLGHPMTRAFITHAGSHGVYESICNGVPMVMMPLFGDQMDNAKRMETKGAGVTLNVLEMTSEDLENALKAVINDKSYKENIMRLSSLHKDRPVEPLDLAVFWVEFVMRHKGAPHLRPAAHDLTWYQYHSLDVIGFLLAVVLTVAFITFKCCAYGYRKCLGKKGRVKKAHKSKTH

microsomal CLint (UGT1A1; UGT1A1, M1 formation): 22 µL/min/mg | microsomal CLint (UGT1A1; UGT1A1, M2 formation): 5 µL/min/mg | Km at 60 min ([1]; M1 formation): 10 ± 3 µM | Km at 60 min ([1]; M2 formation): 35 ± 11 µM | GA glucuronidation activity (recombinant human UGT2B7): < 0.04 nmol/min/mg | Km at 20 min ([2]; male, Sprague-Dawley, rat, liver microsomes, pH 7.4): 3.9 ± 1.9 µM | microsomal CLint ([2]; male, Sprague-Dawley, rat, pH 7.4, Clint, RLM, M2 formation): 4100 µL/min/mg | microsomal CLint ([2]; male, Sprague-Dawley, rat, pH 7.4, Clint, RLM, M2 formation (text)): 4000 µL/min/mg | microsomal CLint ([2]; male, Sprague-Dawley, rat, pH 7.4, Cltotal, RLM): 4100 µL/min/mg | GA glucuronidation activity (recombinant human UGT1A9): < 0.04 nmol/min/mg | KSI (UGT1A10; UGT1A10, M2 formation): 36 ± 11 µM | microsomal CLint (UGT1A10; human, recombinant UGT1A10, pH 7.4): 18 µL/min/mg
Compound: CC1(C)C=Cc2c(ccc3c2OC[C@@H](c2ccc(O)cc2O)C3)O1 [GA, glabridin]
Vmax ([1]; M1 formation): 0.051 ± 0.005 nmol/min/mg | Vmax ([1]; M2 formation): 0.51 ± 0.09 nmol/min/mg | KSI ([2]; RLM, M2 formation): 7.6 ± 3.0 µM | Vmax ([2]; RLM, M2 formation): 16 ± 5 nmol/min/mg | Vmax (UGT1A10; UGT1A10, M2 formation): 0.50 ± 0.10 nmol/min/mg and 0.5 ± 0.1 nmol/min/mg
